Test results: the NIST ThermoML archive (doi:10.1016/j.jct.2009.05.006)

Key:
[1] = xn = mol fraction of the nth substance listed; details: 298.15 K, 101 kPa, Liquid, Vibrating tube method
[2] = excess molar enthalpy (molar enthalpy of mixing); xn = mol fraction of the nth substance listed; details: 298.15 K, 101 kPa, Liquid, Calvet calorimetry

BrCCCCCCBr [1,6-dibromohexane] + CCCCOC(=O)CC
Details | excess molar enthalpy, [2] [kcal/mol] | mass density, [1] [kg/m3]
x2 = 0.0686 | – | 1552.3
x2 = 0.0731 | 0.00669 | –
x2 = 0.1212 | – | 1514.66
x2 = 0.1582 | 0.0117 | –
x2 = 0.1829 | – | 1470.4
x2 = 0.2418 | 0.0136 | 1427.98
x2 = 0.2995 | – | 1386.24
x2 = 0.3151 | 0.012 | –
x2 = 0.3861 | 0.00621 | –
x2 = 0.4152 | – | 1302.26
x2 = 0.4485 | 0.000239 | –
x2 = 0.4752 | – | 1258.56
x2 = 0.5064 | -0.00669 | –
x2 = 0.5318 | -0.0105 | –
x2 = 0.5419 | -0.0108 | –
x2 = 0.5954 | – | 1170.51
x2 = 0.596 | -0.0143 | –
x2 = 0.6527 | – | 1128.4
x2 = 0.6658 | 0.016 | –
x2 = 0.7123 | – | 1084.48
x2 = 0.7456 | 0.0158 | –
x2 = 0.7652 | – | 1045.44
x2 = 0.8249 | – | 1001.25
x2 = 0.834 | 0.0127 | –
x2 = 0.8847 | – | 956.84
x2 = 0.9306 | 0.00526 | –
x2 = 0.9365 | – | 918.31

BrCCBr [1,2-dibromoethane] + CCCCOC(C)=O
[2]
Details | excess molar enthalpy [kcal/mol]
x2 = 0.0399 | -0.000239
x2 = 0.0964 | -0.000717
x2 = 0.1625 | -0.00382
x2 = 0.2339 | -0.0103
x2 = 0.3039 | -0.0174
x2 = 0.3717 | -0.0246
x2 = 0.4237 | -0.0308
x2 = 0.4749 | -0.0351
x2 = 0.5228 | -0.0363
x2 = 0.5985 | -0.0366
x2 = 0.6854 | -0.0332
x2 = 0.7854 | -0.0277
x2 = 0.8989 | -0.0148

CCCCOC(=O)CCC [butyl butanoate] + BrCCCBr
Details | excess molar enthalpy [kcal/mol] | mass density [kg/m3]
[1], x1 = 0.079 | – | 1834.63
[1], x1 = 0.1205 | – | 1768.32
[1], x1 = 0.206 | – | 1641.3
[1], x1 = 0.2513 | – | 1578.66
[1], x1 = 0.3045 | – | 1509.31
[1], x1 = 0.356 | – | 1445.76
[1], x1 = 0.4085 | – | 1384.26
[1], x1 = 0.4703 | – | 1315.94
[1], x1 = 0.5404 | – | 1243.38
[1], x1 = 0.5989 | – | 1186.32
[1], x1 = 0.7409 | – | 1059.86
[1], x1 = 0.8162 | – | 998.93
[1], x1 = 0.8997 | – | 935.58
[1], x1 = 0.9428 | – | 904.65
[2], x1 = 0.0478 | 0.0055 | –
[2], x1 = 0.1102 | 0.00932 | –
[2], x1 = 0.1831 | 0.0105 | –
[2], x1 = 0.2568 | 0.00765 | –
[2], x1 = 0.3257 | 0.000956 | –
[2], x1 = 0.3879 | -0.00789 | –
[2], x1 = 0.4528 | -0.0163 | –
[2], x1 = 0.5333 | -0.0217 | –
[2], x1 = 0.6324 | -0.0246 | –
[2], x1 = 0.7588 | -0.0225 | –
[2], x1 = 0.8755 | -0.0158 | –
